From patent US8741899B2, “(4-chloro-2-fluoro-N-(2-fluorophenyl)-5-[(8aR)-hexahydropyrrolo-[1,2-a]pyrazin-2(1H)-ylcarbonyl]-benzenesulfonamide, and pharmaceutically acceptable salts thereof” (AbbVie Inc., priority 2009, dated 2014)

Each compound was assayed against T1, Human Cav3.2 Channels (Homo sapiens, UniProt O95180) (assay: Electrophysiologic (whole-cell patch-clamp) assessment of calcium channel activity in HEK293 cells stably expressing hCav3.2). Conditions: −77 mV, geometric mean, read-out: Human Cav3.2 −77 mV IC50 (μM) GeoMean.
T1 construct: expressed in transfected cells
T1 sequence (O95180 whole entry): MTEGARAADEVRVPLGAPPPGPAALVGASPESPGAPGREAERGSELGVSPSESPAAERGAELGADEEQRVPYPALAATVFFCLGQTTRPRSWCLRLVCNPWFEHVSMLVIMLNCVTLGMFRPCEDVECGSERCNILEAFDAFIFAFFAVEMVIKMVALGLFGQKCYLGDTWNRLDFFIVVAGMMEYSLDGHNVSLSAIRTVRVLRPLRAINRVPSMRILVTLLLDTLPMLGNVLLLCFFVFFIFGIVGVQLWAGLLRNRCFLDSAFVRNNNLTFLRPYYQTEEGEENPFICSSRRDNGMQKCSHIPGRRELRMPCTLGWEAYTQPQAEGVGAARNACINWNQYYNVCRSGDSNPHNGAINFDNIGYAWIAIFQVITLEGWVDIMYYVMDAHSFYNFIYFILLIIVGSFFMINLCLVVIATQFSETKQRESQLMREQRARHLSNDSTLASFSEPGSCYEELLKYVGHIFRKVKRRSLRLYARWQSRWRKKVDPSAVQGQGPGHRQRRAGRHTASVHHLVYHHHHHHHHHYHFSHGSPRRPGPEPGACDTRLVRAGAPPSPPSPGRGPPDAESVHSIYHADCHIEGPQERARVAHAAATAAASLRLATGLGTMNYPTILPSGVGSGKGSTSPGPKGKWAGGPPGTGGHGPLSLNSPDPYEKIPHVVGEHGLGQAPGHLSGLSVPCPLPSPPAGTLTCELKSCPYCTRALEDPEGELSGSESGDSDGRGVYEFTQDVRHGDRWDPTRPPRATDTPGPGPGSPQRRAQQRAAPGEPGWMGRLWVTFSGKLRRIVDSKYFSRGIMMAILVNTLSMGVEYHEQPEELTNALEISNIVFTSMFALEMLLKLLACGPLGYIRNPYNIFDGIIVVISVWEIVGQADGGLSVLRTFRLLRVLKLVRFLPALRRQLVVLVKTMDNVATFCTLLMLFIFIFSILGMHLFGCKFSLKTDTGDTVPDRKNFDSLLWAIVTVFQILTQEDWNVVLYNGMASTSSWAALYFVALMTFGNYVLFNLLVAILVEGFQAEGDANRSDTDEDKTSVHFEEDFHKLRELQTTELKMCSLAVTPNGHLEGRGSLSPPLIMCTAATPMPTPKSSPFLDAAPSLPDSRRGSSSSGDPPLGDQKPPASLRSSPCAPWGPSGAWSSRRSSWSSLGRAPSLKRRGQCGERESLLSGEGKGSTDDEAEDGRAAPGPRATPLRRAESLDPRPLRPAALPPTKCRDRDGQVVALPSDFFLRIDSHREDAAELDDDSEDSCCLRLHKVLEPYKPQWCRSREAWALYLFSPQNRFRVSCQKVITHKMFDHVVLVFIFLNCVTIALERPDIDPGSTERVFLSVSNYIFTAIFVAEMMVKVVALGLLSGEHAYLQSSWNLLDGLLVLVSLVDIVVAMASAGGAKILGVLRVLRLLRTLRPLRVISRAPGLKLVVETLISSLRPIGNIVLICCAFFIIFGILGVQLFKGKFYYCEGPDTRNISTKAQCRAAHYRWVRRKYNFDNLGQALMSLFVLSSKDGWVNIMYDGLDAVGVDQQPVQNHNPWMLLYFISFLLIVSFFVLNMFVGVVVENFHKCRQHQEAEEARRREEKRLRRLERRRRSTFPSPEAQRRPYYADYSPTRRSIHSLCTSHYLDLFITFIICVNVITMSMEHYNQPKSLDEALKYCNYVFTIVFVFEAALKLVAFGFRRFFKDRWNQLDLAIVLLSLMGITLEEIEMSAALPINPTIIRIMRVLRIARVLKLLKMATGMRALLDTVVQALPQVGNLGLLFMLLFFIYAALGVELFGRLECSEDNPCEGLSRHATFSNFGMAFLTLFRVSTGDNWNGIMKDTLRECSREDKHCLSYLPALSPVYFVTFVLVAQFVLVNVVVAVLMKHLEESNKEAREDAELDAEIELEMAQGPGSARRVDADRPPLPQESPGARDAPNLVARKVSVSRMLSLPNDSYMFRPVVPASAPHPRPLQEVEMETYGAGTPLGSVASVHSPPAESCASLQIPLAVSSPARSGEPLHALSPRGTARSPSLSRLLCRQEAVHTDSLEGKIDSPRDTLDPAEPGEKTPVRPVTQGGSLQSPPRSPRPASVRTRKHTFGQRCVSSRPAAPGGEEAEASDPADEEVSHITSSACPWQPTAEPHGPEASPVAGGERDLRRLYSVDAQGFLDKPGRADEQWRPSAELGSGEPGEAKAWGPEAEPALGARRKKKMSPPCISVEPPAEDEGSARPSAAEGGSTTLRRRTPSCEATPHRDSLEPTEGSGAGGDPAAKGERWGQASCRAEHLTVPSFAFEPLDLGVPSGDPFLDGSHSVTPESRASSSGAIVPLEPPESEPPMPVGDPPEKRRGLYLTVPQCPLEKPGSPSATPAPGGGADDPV
Format: cell-based
Description: (i) In Vitro Methods—Electrophysiologic Assessment of Calcium Channel Activity:
Patch-clamp recordings were performed using HEK293 cells stably expressing hCav3.2. Cells were plated in T175 flasks and grown at 37° C. and under 5% CO2 to approximately 50% confluency. On the day of the experiment, cells were harvested with Detachin™ cell detachment solution (Genlantis, San Diego, Calif.) and maintained in serum-free culture medium supplemented with 25 mM HEPES up to several hours prior to experiment. Whole-cell patch-clamp recordings were obtained using extracellular saline consisting of (mM): 87.5 CsCl, 40 TEA-Cl, 5 CaCl2, 1 MgCl2, 10 HEPES, 10 glucose. The pH was adjusted to 7.2 with CsOH and the osmolarity was adjusted to approximately 310 mOsm with sucrose. Intracellular solution consisted of (mM): 112 CsCl, 27 CsF, 2 NaCl, 8.2 EGTA, 10 HEPES. Prior to an experiment 4 mM Mg2ATP was added and the pH was adjusted to 7.2 with CsOH with an osmolarity of approximately 290 mOsm. A two-pulse voltage protocol was utilized to assess compound inhibition. First, cells were held with an 8 s pre-pulse at −100 mV prior to a 160 ms test pulse to −30 mV. This was followed by an 8 s pre-pulse at approximately −75 mV prior to a […]. Increasing concentrations of antagonist were applied to individual cells in a multi-addition format with 5 minutes in each test concentration. For each cell, responses were normalized to dimethyl sulfoxide vehicle control to generate concentration-response curves.

Point of comparison: `O=C(N[C@@H]1C[C@H]1c1ccccc1)c1cccc(S(=O)(=O)N2CCN3CCC[C@H]3C2)c1` [Example 60, 3-[(8aS)-hexahydropyrrolo[1,2-a]pyrazin-2(1H)-ylsulfonyl]-N-[(1R,2S)-2-phenylcyclopropyl]benzamide], IC50 5 µM. Against it:
- O=C(c1cc(S(=O)(=O)NCCC(c2ccccc2)c2ccccc2)c(F)cc1Cl)N1CCN2CCC[C@H]2C1 [Example 59, 4-chloro-N-(3,3-diphenylpropyl)-2-fluoro-5-[(8aS)-hexahydropyrrolo[1,2-a]pyrazin-2(1H)-ylcarbonyl]benzenesulfonamide] — 1.8-fold higher, 9 µM
- O=C(c1cccc(S(=O)(=O)N[C@@H]2C[C@H]2c2ccccc2)c1)N1CCN2CCC[C@H]2C1 [Example 61, 3-[(8aS)-hexahydropyrrolo[1,2-a]pyrazin-2(1H)-ylcarbonyl]-N-[(1R,2S)-2-phenylcyclopropyl]benzenesulfonamide] — higher, > 10 µM
- O=C(c1ccc(S(=O)(=O)N[C@H](CO)c2ccccc2)cc1)N1CCN2CCC[C@@H]2C1 [Example 62, 4-[(8aR)-hexahydropyrrolo[1,2-a]pyrazin-2(1H)-ylcarbonyl]-N-[(1S)-2-hydroxy-1-phenylethyl]benzenesulfonamide] — higher, > 10 µM
- O=C(c1cc(S(=O)(=O)N2CCc3ccccc32)c(F)cc1Cl)N1CCN2CCC[C@@H]2C1 [Example 63, (8aR)-2-[2-chloro-5-(2,3-dihydro-1H-indol-1-ylsulfonyl)-4-fluorobenzoyl]octahydropyrrolo[1,2-a]pyrazine] — higher, > 10 µM
- O=C(c1ccc(F)c(NS(=O)(=O)c2cccc(C(F)(F)F)c2)c1)N1CCN2CCC[C@@H]2C1 [Example 65, N-{2-fluoro-5-[(8aR)-hexahydropyrrolo[1,2-a]pyrazin-2(1H)-ylcarbonyl]phenyl}-3-(trifluoromethyl)benzenesulfonamide] — 2.7-fold lower, 1.84 µM
- CN(c1ccccc1F)S(=O)(=O)c1cc(C(=O)N2CCN3CCC[C@@H]3C2)c(Cl)cc1F [Example 66, 4-chloro-2-fluoro-N-(2-fluorophenyl)-5-[(8aR)-hexahydropyrrolo[1,2-a]pyrazin-2(1H)-ylcarbonyl]-N-methylbenzenesulfonamide] — within 1.5-fold, 5.9 µM
- O=C(c1cc(S(=O)(=O)N2CCN(c3ccc(F)cc3)CC2)c(F)cc1Cl)N1CCN2CCC[C@@H]2C1 [Example 67, (8aR)-2-(2-chloro-4-fluoro-5-{[4-(4-fluorophenyl)piperazin-1-yl]sulfonyl}benzoyl)octahydropyrrolo[1,2-a]pyrazine] — 1.6-fold lower, 3.18 µM
- O=C(Nc1cc(C(=O)N2CCN3CCC[C@@H]3C2)ccc1Cl)c1ccc(F)cc1 [Example 68, N-{2-chloro-5-[(8aR)-hexahydropyrrolo[1,2-a]pyrazin-2(1H)-ylcarbonyl]phenyl}-4-fluorobenzamide] — 2.2-fold higher, 10.9 µM
- CN(c1cccc(C(=O)N2CCN3CCC[C@@H]3C2)c1)S(=O)(=O)c1cccc(C(F)(F)F)c1 [Example 69, N-{3-[(8aR)-hexahydropyrrolo[1,2-a]pyrazin-2(1H)-ylcarbonyl]phenyl}-N-methyl-3-(trifluoromethyl)benzenesulfonamide] — higher, > 10 µM
- O=C(c1cc(S(=O)(=O)NCC(c2ccccc2)c2ccccc2)c(F)cc1Cl)N1CCN2CCC[C@@H]2C1 [Example 70, 4-chloro-N-(2,2-diphenylethyl)-2-fluoro-5-[(8aR)-hexahydropyrrolo[1,2-a]pyrazin-2(1H)-ylcarbonyl]benzenesulfonamide] — within 1.5-fold, 7.2 µM
- Cc1cc(C(=O)N2CCN3CCC[C@@H]3C2)ccc1NC(=O)c1ccc2ccccc2c1 [Example 72, N-{4-[(8aR)-hexahydropyrrolo[1,2-a]pyrazin-2(1H)-ylcarbonyl]-2-methylphenyl}-2-naphthamide] — higher, > 10 µM
- O=C(Nc1cc(C(=O)N2CCN3CCC[C@@H]3C2)ccc1F)c1cc(Cl)cc(Cl)c1 [Example 73, 3,5-dichloro-N-{2-fluoro-5-[(8aR)-hexahydropyrrolo[1,2-a]pyrazin-2(1H)-ylcarbonyl]phenyl}benzamide] — 2.8-fold lower, 1.8 µM
- O=C(c1cc(S(=O)(=O)NC(c2ccccc2)c2ccccc2)c(F)cc1Cl)N1CCN2CCC[C@@H]2C1 [Example 74, N-benzhydryl-4-chloro-2-fluoro-5-[(8aR)-hexahydropyrrolo[1,2-a]pyrazin-2(1H)-ylcarbonyl]benzenesulfonamide] — 2.5-fold lower, 2 µM
- O=C(Nc1ccc(C(=O)N2CCN3CCC[C@@H]3C2)cc1Cl)C(c1ccccc1)c1ccccc1 [Example 75, N-{2-chloro-4-[(8aR)-hexahydropyrrolo[1,2-a]pyrazin-2(1H)-ylcarbonyl]phenyl}-2,2-diphenylacetamide] — within 1.5-fold, 6.5 µM
- O=C(Nc1ccc(C(=O)N2CCN3CCC[C@@H]3C2)cc1Cl)c1ccc2ccccc2c1 [Example 76, N-{2-chloro-4-[(8aR)-hexahydropyrrolo[1,2-a]pyrazin-2(1H)-ylcarbonyl]phenyl}-2-naphthamide] — within 1.5-fold, 6.4 µM
- CC(C)N(c1cccc(C(=O)N2CCN3CCC[C@@H]3C2)c1)S(=O)(=O)c1cccc(C(F)(F)F)c1 [Example 77, N-{3-[(8aR)-hexahydropyrrolo[1,2-a]pyrazin-2(1H)-ylcarbonyl]phenyl}-N-isopropyl-3-(trifluoromethyl)benzenesulfonamide] — higher, > 10 µM
- O=C(Nc1cc(C(=O)N2CCN3CCC[C@@H]3C2)ccc1Cl)C(c1ccccc1)c1ccccc1 [Example 78, N-{2-chloro-5-[(8aR)-hexahydropyrrolo[1,2-a]pyrazin-2(1H)-ylcarbonyl]phenyl}-2,2-diphenylacetamide] — higher, > 10 µM
- O=C(c1ccc(Cl)c(NC(c2ccccc2)c2ccccc2)c1)N1CCN2CCC[C@@H]2C1 [Example 79, N-benzhydryl-N-{2-chloro-5-[(8aR)-hexahydropyrrolo[1,2-a]pyrazin-2(1H)-ylcarbonyl]phenyl}amine] — 1.7-fold higher, 8.5 µM
- O=C(c1cccc(NC(c2ccccc2)c2ccccc2)c1)N1CCN2CCC[C@@H]2C1 [Example 80, N-benzhydryl-N-{3-[(8aR)-hexahydropyrrolo[1,2-a]pyrazin-2(1H)-ylcarbonyl]phenyl}amine] — 2.5-fold lower, 2 µM
- O=C(N[C@H](CO)c1ccccc1)c1cccc(S(=O)(=O)N2CCN3CCC[C@@H]3C2)c1 [Example 81, 3-[(8aR)-hexahydropyrrolo[1,2-a]pyrazin-2(1H)-ylsulfonyl]-N-[(1S)-2-hydroxy-1-phenylethyl]benzamide] — higher, > 10 µM
- O=C(NC(c1ccccc1)c1ccccc1)c1cc(S(=O)(=O)N2CCN3CCC[C@H]3C2)c(F)cc1Cl [Example 82, N-benzhydryl-2-chloro-4-fluoro-5-[(8aS)-hexahydropyrrolo[1,2-a]pyrazin-2(1H)-ylsulfonyl]benzamide] — 1.9-fold lower, 2.6 µM
- O=C(NC1CC1)c1cc(S(=O)(=O)N2CCN3CCC[C@H]3C2)c(F)cc1Cl [Example 83, 2-chloro-N-cyclopropyl-4-fluoro-5-[(8aS)-hexahydropyrrolo[1,2-a]pyrazin-2(1H)-ylsulfonyl]benzamide] — higher, > 10 µM
